In US10961279B2 (priority 2011, dated 2021):

Test system: CTLL-2 cells
Type: cell-based

## DRGWGNGCGDFGKG [FLV FUS non-IS]
  effect of the dimeric peptides on proliferation of CTLL-2 cells: non-immune suppressive

## DRGWGNGCGLFGKG [monomeric peptide]
  inhibition of proliferation of CTLL-2 cells: no effect

## GLFGAIAGFIENGWEGCGGEKEKEK [wt INF]
  effect of the dimeric peptides on proliferation of CTLL-2 cells (synthesis of new DNA): inhibits synthesis of new DNA

## PALSTGLIHLHQNIVDVQCGGEKEKEK
  inhibition of proliferation of T-cells: inhibits proliferation of T-cells in a concentration dependent manner
